In PubChem BioAssay (NCI):
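1) Cells in 96-well plates. 2) Compound, 48 h, 5 concentrations. 3) Linear interpolation between surrounding doses. 4) Unreached endpoint = highest concentration. TGI: total growth inhibition.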

Columns and labels:
Assay in all cases: growth of human tumour cells (NCI), 48 h
UO-31 renal = tested on: UO-31 renal
SF-295 CNS = tested on: SF-295 CNS
SW-620 colon = tested on: SW-620 colon
HOP-92 NSCLC = tested on: HOP-92 NSCLC
LXFL 529 NSCLC = tested on: LXFL 529 NSCLC
RPMI-8226 leukemia = tested on: RPMI-8226 leukemia
MALME-3M melanoma = tested on: MALME-3M melanoma
KM20L2 colon = tested on: KM20L2 colon
MOLT-4 leukemia = tested on: MOLT-4 leukemia
M14 melanoma = tested on: M14 melanoma
DMS 273 small cell lung = tested on: DMS 273 small cell lung
A498 renal = tested on: A498 renal
CAKI-1 renal = tested on: CAKI-1 renal
K-562 leukemia = tested on: K-562 leukemia
ACHN renal = tested on: ACHN renal
A549 NSCLC = tested on: A549 NSCLC
SF-539 CNS = tested on: SF-539 CNS
OVCAR-8 ovarian = tested on: OVCAR-8 ovarian
EKVX NSCLC = tested on: EKVX NSCLC
DLD-1 colon = tested on: DLD-1 colon
OVCAR-3 ovarian = tested on: OVCAR-3 ovarian
SK-MEL-5 melanoma = tested on: SK-MEL-5 melanoma
SR leukemia = tested on: SR leukemia
HOP-18 NSCLC = tested on: HOP-18 NSCLC
NCI-H522 lung = tested on: NCI-H522 lung
786-0 renal = tested on: 786-0 renal
SN12C renal = tested on: SN12C renal
IGROV1 ovarian = tested on: IGROV1 ovarian
RXF 393 renal = tested on: RXF 393 renal
CCRF-CEM leukemia = tested on: CCRF-CEM leukemia
NCI-H460 lung = tested on: NCI-H460 lung
TK-10 renal = tested on: TK-10 renal
RXF-631 renal = tested on: RXF-631 renal
SF-268 CNS = tested on: SF-268 CNS
M19-MEL melanoma = tested on: M19-MEL melanoma
LOX IMVI melanoma = tested on: LOX IMVI melanoma
DMS 114 small cell lung = tested on: DMS 114 small cell lung
HCT-15 colon = tested on: HCT-15 colon
NCI-H226 lung = tested on: NCI-H226 lung
OVCAR-4 ovarian = tested on: OVCAR-4 ovarian
SK-MEL-28 melanoma = tested on: SK-MEL-28 melanoma
UACC-62 melanoma = tested on: UACC-62 melanoma
UACC-257 melanoma = tested on: UACC-257 melanoma
HL-60(TB) leukemia = tested on: HL-60(TB) leukemia
NCI-H23 lung = tested on: NCI-H23 lung
SNB-19 CNS = tested on: SNB-19 CNS
HOP-62 NSCLC = tested on: HOP-62 NSCLC
OVCAR-5 ovarian = tested on: OVCAR-5 ovarian
HT29 colon = tested on: HT29 colon
COLO 205 colon = tested on: COLO 205 colon
U251 CNS = tested on: U251 CNS
HCT-116 colon = tested on: HCT-116 colon
SK-OV-3 ovarian = tested on: SK-OV-3 ovarian
HCC-2998 colon = tested on: HCC-2998 colon
KM12 colon = tested on: KM12 colon
SNB-75 CNS = tested on: SNB-75 CNS
SNB-78 CNS = tested on: SNB-78 CNS
SK-MEL-2 melanoma = tested on: SK-MEL-2 melanoma

## CC(C)(C)OC(=O)N1N=NC2C3CC(=O)C(O3)C21 (configuration not stated)
UO-31 renal
  TGI: > 100 µM
SF-295 CNS
  TGI: > 100 µM
SW-620 colon
  TGI: > 100 µM
HOP-92 NSCLC
  TGI: > 100 µM
LXFL 529 NSCLC
  TGI: > 100 µM
RPMI-8226 leukemia
  TGI: > 100 µM
MALME-3M melanoma
  TGI: > 100 µM
KM20L2 colon
  TGI: > 100 µM
MOLT-4 leukemia
  TGI: > 100 µM
M14 melanoma
  TGI: > 100 µM
DMS 273 small cell lung
  TGI: > 100 µM
A498 renal
  TGI: > 100 µM
CAKI-1 renal
  TGI: > 100 µM
K-562 leukemia
  TGI: > 100 µM
ACHN renal
  TGI: > 100 µM
A549 NSCLC
  TGI: > 100 µM
SF-539 CNS
  TGI: > 100 µM
OVCAR-8 ovarian
  TGI: > 100 µM
EKVX NSCLC
  TGI: > 100 µM
DLD-1 colon
  TGI: > 100 µM
OVCAR-3 ovarian
  TGI: > 100 µM
SK-MEL-5 melanoma
  TGI: > 100 µM
SR leukemia
  TGI: > 100 µM
HOP-18 NSCLC
  TGI: > 100 µM
NCI-H522 lung
  TGI: > 100 µM
786-0 renal
  TGI: > 100 µM
SN12C renal
  TGI: > 100 µM
IGROV1 ovarian
  TGI: > 100 µM
RXF 393 renal
  TGI: > 100 µM
CCRF-CEM leukemia
  TGI: > 100 µM
NCI-H460 lung
  TGI: > 100 µM
TK-10 renal
  TGI: > 100 µM
RXF-631 renal
  TGI: > 100 µM

## CCOC(=O)C12CC1(C(=O)OCC)C1CCC2C1 (configuration not stated)
SF-268 CNS
  TGI: > 100 µM
UO-31 renal
  TGI: > 100 µM
M19-MEL melanoma
  TGI: > 100 µM
SF-295 CNS
  TGI: > 100 µM
LOX IMVI melanoma
  TGI: > 100 µM
DMS 114 small cell lung
  TGI: > 100 µM
SW-620 colon
  TGI: > 100 µM
HCT-15 colon
  TGI: > 100 µM
HOP-92 NSCLC
  TGI: 95.2 µM
NCI-H226 lung
  TGI: > 100 µM
OVCAR-4 ovarian
  TGI: > 100 µM
SK-MEL-28 melanoma
  TGI: > 100 µM
UACC-62 melanoma
  TGI: > 100 µM
UACC-257 melanoma
  TGI: > 100 µM
LXFL 529 NSCLC
  TGI: > 100 µM
RPMI-8226 leukemia
  TGI: > 100 µM
MALME-3M melanoma
  TGI: > 100 µM
HL-60(TB) leukemia
  TGI: > 100 µM
NCI-H23 lung
  TGI: > 100 µM
MOLT-4 leukemia
  TGI: > 100 µM
M14 melanoma
  TGI: > 100 µM
DMS 273 small cell lung
  TGI: > 100 µM
SNB-19 CNS
  TGI: > 100 µM
A498 renal
  TGI: > 100 µM
HOP-62 NSCLC
  TGI: > 100 µM
CAKI-1 renal
  TGI: > 100 µM
K-562 leukemia
  TGI: > 100 µM
OVCAR-5 ovarian
  TGI: > 100 µM
ACHN renal
  TGI: > 100 µM
A549 NSCLC
  TGI: > 100 µM
OVCAR-8 ovarian
  TGI: > 100 µM
DLD-1 colon
  TGI: > 100 µM
OVCAR-3 ovarian
  TGI: > 100 µM
HT29 colon
  TGI: > 100 µM
SK-MEL-5 melanoma
  TGI: > 100 µM
SR leukemia
  TGI: > 100 µM
HOP-18 NSCLC
  TGI: > 100 µM
COLO 205 colon
  TGI: > 100 µM
U251 CNS
  TGI: > 100 µM
786-0 renal
  TGI: > 100 µM
SN12C renal
  TGI: > 100 µM
IGROV1 ovarian
  TGI: > 100 µM
CCRF-CEM leukemia
  TGI: > 100 µM
NCI-H460 lung
  TGI: > 100 µM
HCT-116 colon
  TGI: > 100 µM
TK-10 renal
  TGI: > 100 µM
RXF-631 renal
  TGI: > 100 µM
SK-OV-3 ovarian
  TGI: > 100 µM
HCC-2998 colon
  TGI: > 100 µM

## Cc1nc(C(N)=S)sc1C(=O)/C=C/c1cccc(O)c1
KM12 colon
  TGI: > 100 µM
SNB-75 CNS
  TGI: > 100 µM
SF-268 CNS
  TGI: > 100 µM
UO-31 renal
  TGI: > 100 µM
M19-MEL melanoma
  TGI: > 100 µM
SF-295 CNS
  TGI: > 100 µM
LOX IMVI melanoma
  TGI: > 100 µM
SNB-78 CNS
  TGI: > 100 µM
DMS 114 small cell lung
  TGI: > 100 µM
SW-620 colon
  TGI: > 100 µM
HCT-15 colon
  TGI: > 100 µM
HOP-92 NSCLC
  TGI: > 100 µM
NCI-H226 lung
  TGI: > 100 µM
SK-MEL-28 melanoma
  TGI: > 100 µM
UACC-62 melanoma
  TGI: > 100 µM
UACC-257 melanoma
  TGI: > 100 µM
SK-MEL-2 melanoma
  TGI: > 100 µM
RPMI-8226 leukemia
  TGI: > 100 µM
MALME-3M melanoma
  TGI: > 100 µM
HL-60(TB) leukemia
  TGI: > 100 µM
NCI-H23 lung
  TGI: > 100 µM
KM20L2 colon
  TGI: > 100 µM
MOLT-4 leukemia
  TGI: > 100 µM
DMS 273 small cell lung
  TGI: > 100 µM
A498 renal
  TGI: > 100 µM
HOP-62 NSCLC
  TGI: > 100 µM
CAKI-1 renal
  TGI: > 100 µM
K-562 leukemia
  TGI: 78.3 µM
OVCAR-5 ovarian
  TGI: > 100 µM
ACHN renal
  TGI: > 100 µM
A549 NSCLC
  TGI: > 100 µM
SF-539 CNS
  TGI: > 100 µM
OVCAR-8 ovarian
  TGI: > 100 µM
EKVX NSCLC
  TGI: > 100 µM
DLD-1 colon
  TGI: > 100 µM
OVCAR-3 ovarian
  TGI: > 100 µM
HT29 colon
  TGI: > 100 µM
SK-MEL-5 melanoma
  TGI: > 100 µM
HOP-18 NSCLC
  TGI: > 100 µM
COLO 205 colon
  TGI: > 100 µM
NCI-H522 lung
  TGI: > 100 µM
U251 CNS
  TGI: > 100 µM
786-0 renal
  TGI: > 100 µM
SN12C renal
  TGI: > 100 µM
IGROV1 ovarian
  TGI: > 100 µM
RXF 393 renal
  TGI: > 100 µM
CCRF-CEM leukemia
  TGI: 89.2 µM
NCI-H460 lung
  TGI: > 100 µM
TK-10 renal
  TGI: > 100 µM
RXF-631 renal
  TGI: > 100 µM
SK-OV-3 ovarian
  TGI: > 100 µM
HCC-2998 colon
  TGI: > 100 µM

## CC1=C2C(c3ccccc3)(c3ccccc3)C3C=CC2(C=N3)N(C(=O)NC2CCCCC2)C1=O (configuration not stated)
KM12 colon
  TGI: 32.1 µM
SF-268 CNS
  TGI: 34.7 µM
UO-31 renal
  TGI: 27.3 µM
SF-295 CNS
  TGI: 31.2 µM
LOX IMVI melanoma
  TGI: 29.5 µM
SNB-78 CNS
  TGI: 31.9 µM
DMS 114 small cell lung
  TGI: 32.5 µM
SW-620 colon
  TGI: 31.9 µM
HCT-15 colon
  TGI: 30.4 µM
HOP-92 NSCLC
  TGI: 27.4 µM
OVCAR-4 ovarian
  TGI: 31.5 µM
SK-MEL-28 melanoma
  TGI: 30.6 µM
UACC-62 melanoma
  TGI: 33.4 µM
UACC-257 melanoma
  TGI: 30.9 µM
LXFL 529 NSCLC
  TGI: 30.1 µM
RPMI-8226 leukemia
  TGI: 37.8 µM
MALME-3M melanoma
  TGI: 31.6 µM
HL-60(TB) leukemia
  TGI: 30.2 µM
NCI-H23 lung
  TGI: 32.5 µM
KM20L2 colon
  TGI: 30.6 µM
MOLT-4 leukemia
  TGI: 35.8 µM
M14 melanoma
  TGI: 31.2 µM
DMS 273 small cell lung
  TGI: 33.2 µM
SNB-19 CNS
  TGI: 32.9 µM
A498 renal
  TGI: 31.6 µM
HOP-62 NSCLC
  TGI: 31.7 µM
CAKI-1 renal
  TGI: 26.1 µM
K-562 leukemia
  TGI: 34.6 µM
OVCAR-5 ovarian
  TGI: 31.5 µM
ACHN renal
  TGI: 33.8 µM
A549 NSCLC
  TGI: 32.8 µM
SF-539 CNS
  TGI: 30.7 µM
OVCAR-8 ovarian
  TGI: 33.6 µM
EKVX NSCLC
  TGI: 28.7 µM
OVCAR-3 ovarian
  TGI: 28.2 µM
SK-MEL-5 melanoma
  TGI: 30.5 µM
SR leukemia
  TGI: 37.7 µM
HOP-18 NSCLC
  TGI: 34.3 µM
COLO 205 colon
  TGI: 29.3 µM
U251 CNS
  TGI: 30.6 µM
786-0 renal
  TGI: 29.4 µM
SN12C renal
  TGI: 31.7 µM
IGROV1 ovarian
  TGI: 35.7 µM
CCRF-CEM leukemia
  TGI: 36.1 µM
HCT-116 colon
  TGI: 29.4 µM
RXF-631 renal
  TGI: 26.2 µM
SK-OV-3 ovarian
  TGI: 44.3 µM
HCC-2998 colon
  TGI: 32.4 µM
